We go through 5 compounds from US8771741B2, “In vivo photodynamic therapy of cancer via a near infrared agent encapsulated in calcium phosphate nanoparticles” (The Penn State Research Foundation, priority 2009, dated 2014).

Data set [1] can be described thus: Fluorescence emission of ICG-CPNPs versus free ICG. It is filed as physicochemical. The conditions noted are these: aqueous solution, pH 7; data not shown. The text has this:
The fluorescence spectrum of the dye-doped CPNPs was compared to that of the corresponding free ICG dye under identical optical conditions (785 nm excitation). […] These undesirable phenomena result in peak transformations or spectral shifts, respectively, which are not observed for the embedded ICG emission.
For all optical measurements, samples were placed in a low-volume fluorescence cuvette (9F-SOG-10-GL14-S; Starna Cells, Inc., Atascadero, Calif.), and held by a modified cuvette holder. Absorption spectra were recorded on a PerkinElmer Lambda 950 UV-Vis-NIR spectrophotometer (Perkin Elmer, Waltham, Mass.). The dye-doped particle absorption at 785 nm was compared to a standard curve of absorption vs. ICG concentration to identify the apparent encapsulate content, not accounting for any matrix effects. Next, the release of the encapsulated fluorophore was induced with the addition of a 10:1 volume ratio of a 10^−3 M solution of ethylenediaminetetraacetic acid (EDTA) to the particle suspension. EDTA is a chelating agent that sequesters the divalent Ca^2+ ion from the nanostructure, dissolving the calcium phosphate particles. […]
Fluorescence spectra were recorded using an in-house spectroscopy system in which emitted radiation was collected at 90 degrees with a 10× microscope objective (N.A. 0.3) coupled into a fiber optic cable leading to the spectrometer (Ocean Optics HR-2000-USB). […]

Data set [2] is described as follows: Quantum efficiency of ICG. It is filed as physicochemical. The conditions noted are these: PBS pH 7.4, reference HITC.
Procedure: Each measurement was conducted in duplicate on two separate occasions using freshly prepared stock solutions and a new set of standard data.
Data set [3] in a line: Solvent protection (emission spectra in four bio-relevant solvents). The data set is classed as physicochemical. The conditions noted are these: water, DMEM, ethylene glycol, DMSO. The text has this:
The chemical stability of the encapsulated fluorophore was experimentally verified by analyzing fluorescence spectra as a function of solvent environment. The effect of four bio-relevant solvents (water, Dulbecco's modified Eagle's medium (DMEM), ethylene glycol, and dimethylsulfoxide (DMSO)) on the free ICG dye is shown in FIG. 17A, with shifts in the normalized emission spectra dependent on the solvent environment. The maximum emission wavelengths have a standard deviation of 7.8 nm over an 18 nm spread. These peak values shift toward longer wavelengths due to a combination of general solvent influences and specific solvent effects, such as molecule-molecule interactions and hydrogen bonding. (Lakowicz, J. R., Principles of Fluorescence Spectroscopy. 3rd ed.; Springer: Baltimore, Md., 2006).
Fluorescence spectra were recorded using an in-house spectroscopy system in which emitted radiation was collected at 90 degrees with a 10× microscope objective (N.A. 0.3) coupled into a fiber optic cable leading to the spectrometer (Ocean Optics HR-2000-USB). A high power 785 nm diode laser (450 mW/cm^2) was used as the excitation source (RL785; Renishaw plc, Gloucestershire, UK). […] Aliquots of each were diluted 1:10 into the test solvent and kept in the dark. Measurements were conducted precisely 10 minutes after the sample introduction.

Data set [4] has as its system nude mice implanted with subcutaneous human breast adenocarcinoma tumors. Nature of the data set: In vivo NIR imaging: pharmacokinetic distribution and tumor localization. The conditions noted are these: 24 hours post tail vein injection. As to the method: A NIR whole animal imaging approach was used to investigate the in vivo pharmacokinetic distribution of ICG-CPNPs in nude mice. […] Two different surface functionalities of CPNPs were evaluated, as-synthesized carboxylate surface termination (not shown) and particles surface functionalized with polyethylene glycol (PEG) (series iii). The in vivo behavior of the ICG-CPNP samples were compared to two controls: a sample of carboxylated ghost CPNPs without a fluorescent encapsulate (series i) and free ICG of equivalent absorption (series ii). […] The relatively short in vivo fluorescence of the free dye is attributed to fluorescence quenching of free ICG in physiological environments (Landsman, M. L. J.; Kwant, G.; Mook, G. A.; Zijlstra, W. G. Journal of Applied Physiology 1976, 40, (4), 575-583; Desmettre, T.; Devoisselle, J. M.; Mordon, S. Survey of Opthalmology 2000, 45, (1), 15-27; Simmons, R.; Shephard, R. J. Journal of Applied Physiology 1971, 30, (4), 502-507; Gathje, J.; Steuer, R. R.; Nicholes, K. R. K. Journal of Applied Physiology 1970, 29, (2), 181-185; Mordon, S.; Devoisselle, J. M.; Soulie-Begu, S.; Desmettre, T. Microvascular Research 1998, 55, (2), 146-152; Maarek, J. M. I.; Holschneider, D. P.; Harimoto, J. Journal of Photochemistry and Photobiology B-Biology 2001, 65, (2-3), 157-164) with rapid aggregation and clearance from the body. […]

Another data set relates to animal subjects. The conditions noted are these: cited from earlier work.
Data set [5] in a line: Fluorescence correlation spectroscopy in DPBS (pH dependent dissolution). The data set is classed as physicochemical. The conditions noted are these: for Diffusion coefficient, average / RH (hydrodynamic radius), average: DPBS pH 4, free dye, average of ten measurements. From the text:
Fluorescence correlation spectroscopy was used to determine the solution phase behavior of the particles in order to better understand the particulate behavior in biologically-relevant solutions and to monitor only the fluorescing species. To this end we examined the free dye and the particles in DPBS (Dulbecco's phosphate buffered saline), at pH 7 and at pH 4. Low pH conditions mimicked the acidic environment of an endo-lysosome in which a particle would be enveloped during endocytosis.
FCS measurements were collected for free Cy3 dye at pH 4, Cy3-doped nanoparticles at pH 4 and pH 7 in DPBS. Sample autocorrelation curves are shown in FIG. 9, where a shift of the curve to the right (greater characteristic diffusion time) signifies a lower diffusion coefficient and a larger hydrodynamic radius. In this case, the diffusion time of free Cy3 dye molecules is 127 μs and that of the nanoparticles at pH 7 is 1311 μs. […] The corresponding hydrodynamic radii are RH=9.40±3.83 nm for the nanoparticles at pH 7, RH=0.76±0.09 nm for the nanoparticles at pH 4 and RH=0.75±0.06 nm for the free dye at pH 4. Similar results were obtained for the nanoparticles in DI water at pH 7 and pH 4 (data not shown). In addition to the diffusion data, the particle number concentration can be determined based on the number of particles that diffuse through the observation volume. The CPNP suspension has a particle number concentration of ˜6×10^14 particles/mL, based on these determinations.
The diffusion coefficients and their associated hydrodynamic radii for the ten measurements collected for each sample type (the nanoparticle samples at pH 7 and pH 4, and the Cy3 free dye at pH 4) are listed in Table S1.

A short description of data set [6]: Relative fluorescence quantum efficiency of Cy3. The conditions noted are these: PBS, excitation 532 nm, reference Rhodamine 6G. The data set is classed as physicochemical. As to the method:
As a comparison of the free dye to the encapsulated dye, the relative fluorescence quantum efficiency (QE) was determined according to techniques in the literature. (Williams, A. T. R.; Winfield, S. A.; Miller, J. N. The Analyst 1983, 108, 1067-1071; Kubin, R. F.; Fletcher, A. N. Journal of Luminescence 1982, 27, 455-462). In brief, the integrated fluorescence signals of the free Cy3 and the Cy3-doped CPNPs in PBS were compared to a known reference standard with an excitation wavelength of 532 nm and the QE was calculated using a modified relationship from Lakowicz (Lakowicz, J. R., Principles of Fluorescence Spectroscopy. Third ed.; Springer Science and Business Media: New York, 2006; p 54),
[formula] where Φ, and ΦR are the QE for the sample and the reference respectively, M and Mr are the slopes of the integrated intensity versus absorption plots (FIG. 12A) and n is the refractive index of each solvent. Rhodamine 6G in ethanol was used as a reference with a quantum efficiency of 0.95. (Kubin, R. F.; Fletcher, A. N. Journal of Luminescence 1982, 27, 455-462). […] FIG. 12B exemplifies this enhancement in QE by comparing the fluorescence signal of the Cy3-doped CPNPs to a solution of Cy3 free dye with the same absorption at 532 nm. […]

A short description of a further data set: Solubility in water. The data set is classed as physicochemical.
The conditions of data set [7]: in methanol; cited from earlier work.
In data set [8] the test system is MCF-7 breast adenocarcinoma cells. Nature of the data set: Caspase-3/7 apoptosis assay, drug sensitive cells. The data set is classed as cell-based, human. The conditions noted are these: MCF-7, 24 hrs. As to the method:
(§1) Human MCF-7 breast adenocarcinoma cells and the adriamycin resistant MCF-7-ADR(NCl-AdrR) were grown at 37° C. in RPMI 1640 medium supplemented with 10% fetal bovine serum (FBS). MCF-7 and MCF-7-ADR cells were seeded to a density of 6×10^3 cells/well and grown for 48 hrs in culture medium containing 10% FBS. Cells were then treated with Cer10-CPNP or control CPNP for 24 hrs in media containing 1% fetal bovine serum. Caspase-3/7 enzymatic activity levels were then measured using the Apo-ONE Homogenous Caspase-3/7 Assay (Promega) and performed following the instructions of the manufacturer. The kit provides a caspase-3/7 substrate and Rhodamine 110, which is cleaved by enzymatically active caspase-3/7 resulting in a fluorogenic cleavage product.

The subject of data set [9] is MCF-7/ADR (adriamycin resistant) breast adenocarcinoma cells. As to the kind of experiment: Caspase-3/7 apoptosis assay, drug resistant cells. The data set is classed as cell-based, human. The conditions noted are these: 24 hrs. As to the method:
as §1

Entries after “also recorded” stand apart in the source; their conditions may differ. Structures can show the parent of a compound that is named as a salt.

The LD50 is the dose at which mortality reaches 50%. Take `CC1(C)C(/C=C/C=C/C=C/C=C2\N(CCCCS(=O)(=O)O)c3ccc4ccccc4c3C2(C)C)=[N+](CCCCS(=O)(=O)[O-])c2ccc3ccccc3c21` [free ICG, indocyanine green]: the “concentration at which self-aggregation and loss of emission intensity occur” value in [1] stood at 7 µM. Also, in [2], the “quantum efficiency (per molecule)” value was determined as 0.028±0.001. Also, the “spread of maximum emission wavelengths over four solvents” value in data set [3] was determined as 18 nm. Moreover, in data set [4], the “in vivo fluorescence signal” value is recorded as “no detectable signal; also recorded: No fluorescence signal is detected”. For the same compound, the LD50 with animal subjects was 50 to 80 mg/kg.
With Cy3 amidite [Cy3 Dye], the results for the “Diffusion coefficient, average” value in [5] and in [5] (listed as free Cy3 dye) were 2.90 × 10^−6 cm^2/s and 29.0±0.18×10^−7 cm^2/s, respectively. In addition, the “RH (hydrodynamic radius), average” value amounted to 0.751 nm in data set [5] and 0.75±0.06 nm in data set [5] (listed as free Cy3 dye). This compound also showed a diffusion time in data set [5] (sample autocorrelation curve, free dye pH 4) of 127 μs. In addition, the quantum efficiency in [6] (listed as Cy3 in free solution) was 0.045; in data set [6] (listed as free Cy3 dye), 0.045±0.002. In the data set “Solubility in water”, this compound gave a solubility in water of under 0.05 mg/mL.
As for `CN1C(=CC=CC=CC=CC2=[N+](C)c3ccccc3C2(C)C)C(C)(C)c2ccccc21.[I-]` [hexamethylindotricarbocyanine (HITC), 1,1′,3,3,3′,3′-hexamethylindotricarbocyanine iodide], the “quantum yield of reference dye” value in [7] was 0.28.
As a reminder, the solubility is the dissolved amount per volume that the medium holds. Read a low solubility as a poorly soluble substance. Regarding `O=C1OC2(c3ccc(O)cc3Oc3cc(O)ccc32)c2ccccc21` [fluorescein sodium salt], the solubility in the data set “Solubility in water” (water) was over 40 mg/mL.
Regarding `CCCCCCCCCCCCC/C=C/[C@@H](O)[C@H](CO)NC(=O)CCCCCCCCC` [Cer10 in DMSO, Decanoyl-ceramide], the “caspase 3/7 activity (apoptosis)” value in data set [8] and in [9] was “not” in each case.
